The values that follow come from US10266489B2, “Pyrrolic amide compound and preparation method and application thereof” (HitGen LTD, priority 2014, dated 2019).

In one experiment the test system is Huh7 cells. Briefly: Determination of cell growth inhibition, CCK-8, Huh-7. It is filed as cell-based. The conditions noted are these: Homo sapiens, Huh-7 hepatoma cells, 72 hours, highest measured IC50 of single or multiple operations. From the text: (§1) Test example 2 Cell determination-determination of cell growth inhibition Materials and reagents HepG2 cell strains, Hep3B cell strains, Huh7 cell strains and Li7 cell strains are purchased from Shanghai Institutes for Biological Sciences of Chinese Academy of Sciences; DMEM high glucose media and MEM media are purchased from Hyclone; fetal calf serum is purchased from Gibco Company; trypsin is purchased from Invitrogen Shanghai; CCK-8 kits are purchased from Beyotime Institute of Biotechnology; and other consumables such as cell-culture dishes and the like are purchased from Corning China. […]
(§2) comprising the steps: digesting HepG2 cells, Hep3B Huh7 cells and Li7 cells in logarithmic phases by using the trypsin; after counting the cells by taking uniform cell suspension, adjusting cell density to 1500 cells/pore by using a culture medium containing 10% of serum, and re-inoculating into a 96-pore cell culture plate, wherein the culture volume is 200 μL; incubating in a 5% CO2 incubator at a temperature of 37° C.; and culturing for 24 hours for experiments. […]
(§3) comprising the steps: taking the cells cultured for 24 hours from the incubator, sucking culture solution in the pore plate, adding 200 μL of compound solution prepared by using a culture medium containing 10% of the fetal calf serum into each pore, enabling five pores of each concentration to be parallel, setting DMSO at negative control, and incubating in the 5% CO2 incubator at a temperature of 37° C. for 72 hours for performing CCK-8 detection. […]
(§4) comprising the steps: taking a serum-free medium and a CCK-8 solution, and preparing a CCK-8 working solution according to a ratio of 10:1 (the process needs to be protected from light); taking the cells cultured for 72 hours from the incubator, sucking culture solution in the pore plate, adding 120 μL of the CCK-8 working solution into each pore, adding 120 μL of the CCK-8 working solution into a cell-free pore plate to serve as blank control, and incubating in the 5% CO2 incubator at a temperature of 37° C. for one hour (the process needs to be protected from light ); and […]
(§5) taking the pore plate from the incubator, sucking 100 μL of solution from each pore into a new 96-pore plate, and reading absorbancy at 450 nm (the process needs to he protected from light).
(§6) Tx: absorbancy measured in CCK-8 within 72 hours after compound effect
(§7) C: absorbancy measured m CCK-8 within 72 hours after culturing in negative control pores B: absorbancy measured CCK-8 in blank control pores
(§8) The compounds 1-19 prepared in the embodiments are operated in the above determination, and test results are shown in Table 3, wherein the highest measured IC50 values of the various compounds during single or multiple operations are classified as specified, as shown in Table 3: […]

The test system of another experiment is HepG2 cells. In words: Determination of cell growth inhibition, CCK-8, HepG2. The experiment is classed as cell-based. The conditions noted are these: Homo sapiens, HepG2 hepatoma cells, 72 hours, highest measured IC50 of single or multiple operations.
From the text: as §1, §2, §3, §4, §5, §6, §7, §8

The subject of the next experiment is Hep3B cells. Briefly: Determination of cell growth inhibition, CCK-8, Hep3B. The experiment is classed as cell-based. The settings on record: Homo sapiens, Hep3B hepatoma cells, 72 hours, highest measured IC50 of single or multiple operations.
From the text: as §1, §2, §3, §4, §5, §6, §7, §8

The next experiment concerns Li7 cells. Briefly: Determination of cell growth inhibition, CCK-8, Li-7. The experiment is classed as cell-based. The conditions noted are these: Li-7 hepatoma cells, 72 hours, highest measured IC50 of single or multiple operations.
From the text: as §1, §2, §3, §4, §5, §6, §7, §8

Experiment [1] concerns the target T1, histone deacetylase 6 (HDAC6) (Homo sapiens, UniProt Q9UBN7).
T1 construct: purchased BPS Bioscience 50076
T1 sequence (Q9UBN7 1-1215): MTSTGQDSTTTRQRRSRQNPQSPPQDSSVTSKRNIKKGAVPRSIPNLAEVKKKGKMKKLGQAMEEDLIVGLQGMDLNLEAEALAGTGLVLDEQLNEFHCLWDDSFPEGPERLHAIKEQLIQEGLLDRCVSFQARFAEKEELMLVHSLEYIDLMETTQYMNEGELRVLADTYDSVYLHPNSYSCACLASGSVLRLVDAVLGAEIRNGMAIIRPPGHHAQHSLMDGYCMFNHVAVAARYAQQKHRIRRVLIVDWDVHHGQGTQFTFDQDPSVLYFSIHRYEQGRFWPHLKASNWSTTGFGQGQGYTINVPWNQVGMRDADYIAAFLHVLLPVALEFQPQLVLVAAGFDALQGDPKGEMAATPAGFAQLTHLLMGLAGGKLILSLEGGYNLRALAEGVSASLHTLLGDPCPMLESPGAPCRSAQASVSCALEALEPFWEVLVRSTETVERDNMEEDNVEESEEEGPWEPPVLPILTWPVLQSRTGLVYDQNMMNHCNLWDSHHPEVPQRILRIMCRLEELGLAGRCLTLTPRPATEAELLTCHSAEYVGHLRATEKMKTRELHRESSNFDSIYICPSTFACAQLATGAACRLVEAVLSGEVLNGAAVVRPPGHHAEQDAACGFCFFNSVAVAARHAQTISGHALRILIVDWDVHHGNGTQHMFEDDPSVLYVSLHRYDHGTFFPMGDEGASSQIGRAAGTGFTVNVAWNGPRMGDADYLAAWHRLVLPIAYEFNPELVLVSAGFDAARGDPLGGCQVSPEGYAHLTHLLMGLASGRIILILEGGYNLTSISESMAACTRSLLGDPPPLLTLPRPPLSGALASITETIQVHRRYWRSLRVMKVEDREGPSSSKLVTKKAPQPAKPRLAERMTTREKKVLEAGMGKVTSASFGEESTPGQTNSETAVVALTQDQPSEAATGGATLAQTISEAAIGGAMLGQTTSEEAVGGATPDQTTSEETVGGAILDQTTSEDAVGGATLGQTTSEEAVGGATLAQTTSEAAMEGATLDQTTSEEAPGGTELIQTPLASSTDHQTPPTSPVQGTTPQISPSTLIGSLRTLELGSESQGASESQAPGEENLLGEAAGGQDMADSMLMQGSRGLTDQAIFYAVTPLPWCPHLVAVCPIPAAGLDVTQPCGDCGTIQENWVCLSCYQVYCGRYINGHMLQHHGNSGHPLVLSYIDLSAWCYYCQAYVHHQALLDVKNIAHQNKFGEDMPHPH
Briefly: Detection of enzyme viability of histone deacetylase 6 (fluorogenic substrate deacetylation). The experiment is classed as biochemical. The conditions noted are these: 0.35 ng/μL HDAC 6, 20 μM substrate, 37° C. The text has this:
HDAC inhibitory viabilities of the compounds in the present invention are detected in detection of substrate deacetylation.
A: Detection of enzyme viability of histone deacetylase 6 (#50076, BPS Bioscience):
Acetyl of HDAC 6 on a substrate is removed, so that the substrate is activated and can be affected by a subsequently added developing solution, and fluorophore is released. The size of a fluorescence signal reflects the viability of the HDAC 6. An IC50 detection method of the enzyme is disclosed in Chuping Xu, Elisabetta Soragni improved Histone Deacetylase Inhibitors as Therapeutics for the Neurdegenerative DiseaseEriedreich's Ataxia: A New Synthetic Route. A total reaction system (100 μL/well) contains 0.35 ng/μL of HDAC 6, 20 μM of substrate and compounds of different concentrations. The fluorescence signal is measured within 30 minutes after incubation at a temperature of 37° C., inhibitory effects of the compounds are determined from the obtained data and mapped with the compound concentrations to obtain a concentration response curve, and the IC50 value is fitted according to a four-parameter model.
The compounds 1-19 prepared in the embodiments are subjected to detection of enzyme viability of histone deacetylase 6 (i.e., HDAC6) according to the method above. Test results are shown in Table 2, wherein the measured IC50 values of the compounds are classified as specified, as shown in Table 2: […]

A word on the IC50: it is the concentration that inhibits the measured activity by half.

A value given as a limit tells only on which side of the number the result lay.

Turning to `O=C(NO)C1=CCN(S(=O)(=O)c2ccc(C3=CCNCC3)cc2)C1` [Compound 18, N-hydroxy-1-((4-(1,2,3,6-tetrahydro-pyridine-4-yl)phenyl)sulfonyl) 2,5-dihydro-1H-pyrrole-3-formamide], the 50% inhibitory concentration (IC50) is more than 10 µM in the experiment on Huh7 cells; more than 10 µM with HepG2 cells; more than 10 µM in the experiment on Hep3B cells; more than 10 µM in the experiment on Li7 cells; 0.1 to 0.3 µM in experiment [1].

Take `O=C(NO)C1=CCN(S(=O)(=O)c2cccc(F)c2)C1` [Compound 12, N-hydroxy-1-((3-fluoro-phenyl)sulfonyl) 2,5-dihydro-1H-pyrrole-3-formamide]: the IC50 in the experiment on Huh7 cells was more than 10 µM; with HepG2 cells, less than 10 µM; in the experiment with Hep3B cells, more than 10 µM; with Li7 cells, more than 10 µM; in experiment [1] it was less than 0.1 µM.

For `N#Cc1ccc(S(=O)(=O)N2CC=C(C(=O)NO)C2)cc1` [Compound 1, N-hydroxy-1-((4-benzene-cyano)sulfonyl) 2,5-dihydro-1H-pyrrole-3-formamide], the IC50 is more than 10 µM in the experiment with Huh7 cells; more than 10 µM with HepG2 cells; more than 10 µM with Hep3B cells; more than 10 µM with Li7 cells; 0.1 to 0.3 µM in experiment [1].

With `CNC(=O)c1ccc(S(=O)(=O)N2CC=C(C(=O)NO)C2)cc1` [Compound 9, N-hydroxy-1-((4-(methylaminecarbonyl)phenyl)sulfonyl) 2,5-dihydro-1H-pyrrole-3-formamide], the IC50 in the experiment with Huh7 cells is more than 10 µM; in the experiment with HepG2 cells it was more than 10 µM; with Hep3B cells it was more than 10 µM; with Li7 cells it was more than 10 µM; in experiment [1], less than 0.1 µM.

`Cc1ccc(S(=O)(=O)N2CC=C(C(=O)NO)C2)cc1` [Compound 15, N-hydroxy-1-((4-methylphenyl)sulfonyl)2,5-dihydro-1H-pyrrole-3-formamide]: the 50% inhibitory concentration (IC50) in the experiment on Huh7 cells was more than 10 µM; in the experiment on HepG2 cells, less than 10 µM; in the experiment on Hep3B cells, less than 10 µM; in the experiment with Li7 cells it was less than 10 µM; in experiment [1], less than 0.1 µM.

As for `CC(=O)Nc1ccc(S(=O)(=O)N2CC=C(C(=O)NO)C2)cc1` [Compound 10, N-hydroxy-1-((4-acetamido-phenyl)sulfonyl) 2,5-dihydro-1H-pyrrole-3-formamide], the IC50 is more than 10 µM with Huh7 cells; more than 10 µM in the experiment with HepG2 cells; more than 10 µM with Hep3B cells; more than 10 µM in the experiment on Li7 cells; less than 0.1 µM in experiment [1].

As to `Cc1cccc(S(=O)(=O)N2CC=C(C(=O)NO)C2)c1` [Compound 16, N-hydroxy-1-((3-methylphenyl)sulfonyl)2,5-dihydro-1H-pyrrole-3-formamide], the IC50 in the experiment with Huh7 cells is more than 10 µM; in the experiment on HepG2 cells it was less than 10 µM; in the experiment on Hep3B cells, more than 10 µM; with Li7 cells it was more than 10 µM; in experiment [1], less than 0.1 µM.

Regarding `COc1ccc(S(=O)(=O)N2CC=C(C(=O)NO)C2)cc1` [Compound 13, N-hydroxy-1-((4-methoxy-phenyl)sulfonyl) 2,5-dihydro-1H-pyrrole-3-formamide], the IC50 with Huh7 cells is more than 10 µM; in the experiment on HepG2 cells it was less than 10 µM; in the experiment on Hep3B cells, less than 10 µM; with Li7 cells, less than 10 µM; in experiment [1] it was less than 0.1 µM.

As to `COc1ccc(S(=O)(=O)N2CC=C(C(=O)NO)C2)cc1OC` [Compound 17, N-hydroxy-1-((3,4-dimethoxyphenyl)sulfonyl) 2,5-dihydro-1H-pyrrole-3-formamide], the IC50 is more than 10 µM with Huh7 cells; more than 10 µM in the experiment with HepG2 cells; more than 10 µM in the experiment with Hep3B cells; more than 10 µM in the experiment on Li7 cells; 0.1 to 0.3 µM in experiment [1].

Turning to `Nc1ccccc1NC(=O)C1=CCN(S(=O)(=O)c2ccccc2)C1` [Compound 19, N-(2-aminophenyl)-1-(benzenesulfonyl)-2,5-dihydro-1H-pyrrole-3-formamide], the IC50 was more than 10 µM in the experiment with Huh7 cells; more than 10 µM in the experiment with HepG2 cells; more than 10 µM with Hep3B cells; more than 10 µM in the experiment with Li7 cells; more than 0.5 µM in experiment [1].

Turning to `O=C(NO)C1=CCN(S(=O)(=O)c2ccc(F)cc2)C1` [Compound 11, N-hydroxy-1-((4-fluoro-phenyl)sulfonyl) 2,5-dihydro-1H-pyrrole-3-formamide], the IC50 in the experiment on Huh7 cells was more than 10 µM; with HepG2 cells, more than 10 µM; in the experiment with Hep3B cells it was more than 10 µM; in the experiment on Li7 cells, more than 10 µM; in experiment [1] it was less than 0.1 µM.

Take `O=C(NO)C1=CCN(S(=O)(=O)c2ccc(C(=O)O)cc2)C1` [Compound 7]: the IC50 with Huh7 cells is more than 10 µM; in the experiment on HepG2 cells, more than 10 µM; in the experiment on Hep3B cells, more than 10 µM; in the experiment with Li7 cells, more than 10 µM; in experiment [1], less than 0.1 µM.

With `COc1cccc(S(=O)(=O)N2CC=C(C(=O)NO)C2)c1` [Compound 14, N-hydroxy-1-((3-methoxy-phenyl)sulfonyl) 2,5-dihydro-1H-pyrrole-3-formamide], the IC50 is more than 10 µM with Huh7 cells; less than 10 µM in the experiment on HepG2 cells; less than 10 µM in the experiment on Hep3B cells; less than 10 µM with Li7 cells; less than 0.1 µM in experiment [1].
